pIC50: −log10 of the molar value. Blank lines part the entries; values can stand above or below the compound they belong to.
Tests used:
[1] = target: T1, human JAK2 (Homo sapiens, UniProt O60674); assay: JAK2 inhibition assay (polyGT substrate / Ulight-JAK1 peptide); type: biochemical; conditions: recombinant human JAK2 catalytic domain; polyGT or Ulight-JAK1 peptide assay
T1 construct: catalytic domain (amino acids 808-1132; catalog number PV4210); GST; purchased Invitrogen PV4210
How it was run: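 Two JAK2 formats: a ^33P-ATP polyGT assay (1 μM cold ATP, 90 min, 30° C., cpm read-out) and a Ulight-JAK1 peptide assay read by Europium-anti-phosphotyrosine fluorescence after 60 min at room temperature.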

[2] = target: T2, human JAK1 (Homo sapiens, UniProt P23458); assay: JAK1 inhibition assay (polyGT substrate / Ulight-JAK1 peptide); type: biochemical; conditions: recombinant human JAK1 catalytic domain; polyGT or Ulight-JAK1 peptide assay
T2 construct: catalytic domain, amino acids 866-1154; catalog number PV4774; purchased Invitrogen PV4774
T2 sequence (P23458 866-1154): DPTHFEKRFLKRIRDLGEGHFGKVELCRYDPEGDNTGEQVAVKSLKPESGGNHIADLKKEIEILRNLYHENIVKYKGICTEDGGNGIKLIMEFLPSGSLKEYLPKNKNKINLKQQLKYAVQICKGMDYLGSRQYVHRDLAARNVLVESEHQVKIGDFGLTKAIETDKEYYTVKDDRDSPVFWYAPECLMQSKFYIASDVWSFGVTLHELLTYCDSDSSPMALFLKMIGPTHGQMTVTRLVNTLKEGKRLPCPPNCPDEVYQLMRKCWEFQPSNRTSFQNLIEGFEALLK
How it was run: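 Signal scaled between vehicle and 10 μM staurosporine. Radiometric polyGT reactions ran 45 min at 30 °C, counted after phosphoric-acid stop. Ulight peptide reactions ran 60 min at room temperature, fluorescence read after adding Eu-PT66 detection mix with EDTA.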

[3] = target: T3, human TYK2 (Homo sapiens, UniProt P29597); assay: TYK2 inhibition assay; type: biochemical; conditions: recombinant human TYK2 catalytic domain, polyGT substrate
T3 construct: catalytic domain (amino acids 871-1187; catalog number 08-147); purchased Carna Biosciences 08-147
T3 sequence (P29597 871-1187): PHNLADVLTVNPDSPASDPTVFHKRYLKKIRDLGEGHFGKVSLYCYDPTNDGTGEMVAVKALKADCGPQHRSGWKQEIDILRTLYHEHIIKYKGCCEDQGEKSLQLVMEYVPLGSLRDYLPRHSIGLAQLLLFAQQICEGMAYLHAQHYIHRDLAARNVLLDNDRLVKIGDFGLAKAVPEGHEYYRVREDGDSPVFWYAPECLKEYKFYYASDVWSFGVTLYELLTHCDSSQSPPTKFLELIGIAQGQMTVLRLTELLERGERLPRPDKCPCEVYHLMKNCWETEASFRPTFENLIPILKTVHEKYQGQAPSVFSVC
How it was run: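 Radiometric kinase reaction run 90 min at 30 °C, stopped with phosphoric acid, washed and scintillation-counted.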

[4] = tested on: CTLL-2 cell line; assay: CTLL2 viability assay; type: cell-based; conditions: Mus musculus, IL-2 dependent CTLL2 viability, 24 h, ATP-lite
Source text: The protocol describes the methods to analyse the activity of compounds on their ability to sustain the IL2-dependent viability of CTLL2.
Final DMSO concentration was 0.1%.

[5] = target: T4, human JAK3 (Homo sapiens, UniProt P52333); assay: JAK3 inhibition assay; type: biochemical; conditions: recombinant human JAK3 catalytic domain; polyGT substrate
T4 construct: catalytic domain (amino acids 781-1124; catalog number PV3855); purchased Invitrogen PV3855
T4 sequence (P52333 781-1124): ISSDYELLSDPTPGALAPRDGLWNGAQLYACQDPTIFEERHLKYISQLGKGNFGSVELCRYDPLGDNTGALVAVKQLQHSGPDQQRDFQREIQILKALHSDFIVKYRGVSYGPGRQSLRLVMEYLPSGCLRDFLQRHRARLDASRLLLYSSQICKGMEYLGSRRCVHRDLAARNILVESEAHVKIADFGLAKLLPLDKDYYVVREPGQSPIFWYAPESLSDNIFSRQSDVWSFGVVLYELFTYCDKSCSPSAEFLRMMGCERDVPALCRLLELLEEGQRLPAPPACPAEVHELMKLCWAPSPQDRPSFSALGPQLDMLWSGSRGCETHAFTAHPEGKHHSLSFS
How it was run: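 Radiometric kinase assay: 0.5 ng JAK3 with 2.5 μg polyGT in Tris pH 7.5/MgCl2 buffer, 1 μM ATP plus 0.25 μCi 33P-γ-ATP, 1% DMSO, 45 min at 30 °C, stopped with phosphoric acid.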

[6] = tested on: BA/F3 cell line; assay: BA/F3 viability assay; conditions: Mus musculus, BaF3, 48 h, read-out: BA/F3 IC50

T1 sequence (O60674 808-1132): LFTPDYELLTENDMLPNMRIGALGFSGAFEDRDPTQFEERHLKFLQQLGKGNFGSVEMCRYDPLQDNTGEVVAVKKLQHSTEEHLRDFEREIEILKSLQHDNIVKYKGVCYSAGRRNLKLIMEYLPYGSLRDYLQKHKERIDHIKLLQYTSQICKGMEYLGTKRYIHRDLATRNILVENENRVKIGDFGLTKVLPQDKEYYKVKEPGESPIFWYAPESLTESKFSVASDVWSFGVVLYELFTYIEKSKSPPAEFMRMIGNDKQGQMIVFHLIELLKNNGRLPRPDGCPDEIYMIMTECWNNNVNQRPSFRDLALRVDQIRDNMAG

pIC50 [1]: 6.30 to 7.00
pIC50 [2]: 7.00 to 11.00
pIC50 [3]: 6.30 to 7.00
pIC50 [5]: 7.00 to 11.00
pIC50 [6]: < 5.30
SMILES: CCc1cc(CN(CC#N)S(C)(=O)=O)ncc1N(C)c1cc2c(cn1)ncn2C [Compound 344, N-Cyanomethyl-N-{4-ethyl-5-[methyl-(1-methyl-1H-imidazo[4,5-c]pyridin-6-yl)-amino]-pyridin-2-ylmethyl}-methanesulfonamide]
pIC50 [4]: < 6.00

pIC50 [1]: 7.00 to 11.00
pIC50 [2]: 7.00 to 11.00
pIC50 [3]: 7.00 to 11.00
pIC50 [5]: 7.00 to 11.00
pIC50 [6]: 5.30 to 6.00
SMILES: CCc1cc(C2CN(S(=O)(=O)CC#N)C2)ccc1N(C)c1cc2c(cn1)ncn2C [Compound 353, (3-{3-Ethyl-4-[methyl-(1-methyl-1H-imidazo[4,5-c]pyridin-6-yl)-amino]-phenyl}-azetidine-1-sulfonyl)-acetonitrile]
pIC50 [4]: 6.00 to 6.30

pIC50 [1]: 6.30 to 7.00
pIC50 [2]: 7.00 to 11.00
pIC50 [3]: 6.30 to 7.00
pIC50 [5]: 6.30 to 7.00
pIC50 [6]: < 5.30
SMILES: CCc1cc(CNCC(F)F)ccc1N(C)c1cc2c(cn1)ncn2C [Compound 379]
pIC50 [4]: < 6.00

pIC50 [1]: 7.00 to 11.00
pIC50 [2]: 7.00 to 11.00
pIC50 [3]: 6.30 to 7.00
pIC50 [5]: 7.00 to 11.00
pIC50 [6]: < 5.30
SMILES: CN(c1cc2c(cn1)ncn2C)c1ccc(CNS(C)(=O)=O)cc1OC(F)F [Compound 429, N-{3-Difluoromethoxy-4-[methyl-(1-methyl-1H-imidazo[4,5-c]pyridin-6-yl)-amino]-benzyl}-methanesulfonamide]
pIC50 [4]: < 6.00

pIC50 [1]: < 6.00
pIC50 [2]: 6.00 to 6.30
pIC50 [3]: < 6.00
pIC50 [5]: < 6.00
pIC50 [6]: < 5.30
SMILES: CCc1cc(C2CN(C(=O)C3CCOCC3)C2)ncc1N(C)c1cc2c(cn1)ncn2C [Compound 337, (3-{4-Ethyl-5-[methyl-(1-methyl-1H-imidazo[4,5-c]pyridin-6-yl)-amino]-pyridin-2-yl}-azetidin-1-yl)-(tetrahydro-pyran-4-yl)-methanone]
pIC50 [4]: < 6.00

pIC50 [1]: 7.00 to 11.00
pIC50 [2]: 7.00 to 11.00
pIC50 [3]: 6.30 to 7.00
pIC50 [5]: 7.00 to 11.00
pIC50 [6]: 5.30 to 6.00
SMILES: CCc1cc(C2(COS(=O)(=O)C(F)F)CCNC2)ccc1N(C)c1cc2c(cn1)ncn2C (stereo not drawn) [Compound 398, difluoro-methanesulfonic acid 3-{3-ethyl-4-[methyl-(1-methyl-1H-imidazo[4,5-c]pyridin-6-yl)-amino]-phenyl}-pyrrolidin-3-ylmethyl ester]
pIC50 [4]: < 6.00

More lines, now with the values behind:

SMILES: CN(c1cc2c(cn1)ncn2C)c1ccc(C2CN(CC(F)(F)F)C2)cc1OC(F)F [Compound 364, {2-Difluoromethoxy-4-[1-(2,2,2-trifluoro-ethyl)-azetidin-3-yl]-phenyl}-methyl-(1-methyl-1H-imidazo[4,5-c]pyridin-6-yl)-amine]
pIC50 [1]: 6.30 to 7.00
pIC50 [2]: 7.00 to 11.00
pIC50 [3]: < 6.00
pIC50 [4]: < 6.00
pIC50 [5]: 6.30 to 7.00
pIC50 [6]: < 5.30

SMILES: CN(c1cc2c(cn1)ncn2C)c1c(F)cc(C2CN(S(C)(=O)=O)C2)cc1F [Compound 409, [2,6-Difluoro-4-(1-methanesulfonyl-azetidin-3-yl)-phenyl]-methyl-(1-methyl-1H-imidazo[4,5-c]pyridin-6-yl)-amine]
pIC50 [1]: 6.30 to 7.00
pIC50 [2]: 7.00 to 11.00
pIC50 [3]: < 6.00
pIC50 [4]: < 6.00
pIC50 [5]: 6.00 to 6.30
pIC50 [6]: < 5.30

SMILES: CN(c1cc2c(cn1)ncn2C)c1ccc(C2CN(S(=O)(=O)N(C)C)C2)cc1OC(F)F [Compound 369]
pIC50 [1]: 6.30 to 7.00
pIC50 [2]: 7.00 to 11.00
pIC50 [3]: 6.30 to 7.00
pIC50 [4]: < 6.00
pIC50 [5]: 6.30 to 7.00
pIC50 [6]: 5.30 to 6.00

SMILES: CN(c1cc2c(cn1)ncn2C)c1ccc(C2CN(S(=O)(=O)C(F)F)C2)cc1OC(F)F [Compound 370, {4-[1-(Difluoro-methanesulfonyl)-azetidin-3-yl]-2-difluoromethoxy-henyl}-methyl-(1-methyl-1H-imidazo[4,5-c]pyridin-6-yl)-amine]
pIC50 [1]: 7.00 to 11.00
pIC50 [2]: 7.00 to 11.00
pIC50 [3]: 6.30 to 7.00
pIC50 [4]: < 6.00
pIC50 [5]: 7.00 to 11.00
pIC50 [6]: 5.30 to 6.00

SMILES: CCn1nc(-c2ccc(Cl)cc2)cc1N(C)c1cc2c(cn1)ncn2C [Compound 307, [5-(4-Chloro-phenyl)-2-ethyl-2H-pyrazol-3-yl]-methyl-(1-methyl-1H-imidazo[4,5-c]pyridin-6-yl)-amine]
pIC50 [1]: 6.30 to 7.00
pIC50 [2]: 7.00 to 11.00
pIC50 [3]: 6.30 to 7.00
pIC50 [4]: < 6.00
pIC50 [5]: 6.30 to 7.00
pIC50 [6]: < 5.30

SMILES: CCc1cc(C2(CCNS(C)(=O)=O)COC2)ccc1N(C)c1cc2c(cn1)ncn2C [Compound 392, N-[2-(3-{3-Ethyl-4-[methyl-(1-methyl-1H-imidazo[4,5-c]pyridin-6-yl)-amino]-phenyl}-oxetan-3-yl)-ethyl]-methanesulfonamide]
pIC50 [1]: 7.00 to 11.00
pIC50 [2]: 7.00 to 11.00
pIC50 [3]: 7.00 to 11.00
pIC50 [4]: < 6.00
pIC50 [5]: 6.30 to 7.00
pIC50 [6]: < 5.30

SMILES: CCc1cc(C2CCN(S(C)(=O)=O)CC2)ncc1N(C)c1cc2c(cn1)ncn2C [Compound 383, (4-Ethyl-1′-methanesulfonyl-1′,2′,3′,4′,5′,6′-hexahydro-[2,4′]bipyridinyl-5-yl)-methyl-(1-methyl-1H-imidazo[4,5-c]pyridin-6-yl)-amine]
pIC50 [1]: 6.30 to 7.00
pIC50 [2]: 7.00 to 11.00
pIC50 [3]: 6.00 to 6.30
pIC50 [4]: < 6.00
pIC50 [5]: 6.00 to 6.30
pIC50 [6]: 5.30 to 6.00

SMILES: CCc1cc(C2CN(S(=O)(=O)C(F)F)C2)ccc1N(C)c1cc2c(cn1)ncn2C [Compound 354, {4-[1-(Difluoro-methanesulfonyl)-azetidin-3-yl]-2-ethyl-phenyl}-methyl-(1-methyl-1H-imidazo[4,5-c]pyridin-6-yl)-amine]
pIC50 [1]: 7.00 to 11.00
pIC50 [2]: 7.00 to 11.00
pIC50 [3]: 7.00 to 11.00
pIC50 [4]: 6.00 to 6.30
pIC50 [5]: 7.00 to 11.00
pIC50 [6]: 5.30 to 6.00

SMILES: CCc1cc(C2CN(C(=O)COC)C2)ccc1N(C)c1cc2c(cn1)ncn2C [Compound 350, 1-(3-{3-Ethyl-4-[methyl-(1-methyl-1H-imidazo[4,5-c]pyridin-6-yl)-amino]-phenyl}-azetidin-1-yl)-2-methoxy-ethanone]
pIC50 [1]: 6.30 to 7.00
pIC50 [2]: 7.00 to 11.00
pIC50 [3]: 6.30 to 7.00
pIC50 [4]: < 6.00
pIC50 [5]: < 6.00
pIC50 [6]: < 5.30

SMILES: CCc1cc(C(C#N)N2CCC(F)(F)CC2)ccc1N(C)c1cc2c(cn1)ncn2C (stereo not drawn) [Compound 395, (4,4-Difluoro-piperidin-1-yl)-{3-ethyl-4-[methyl-(1-methyl-1H-imidazo[4,5-c]pyridin-6-yl)-amino]-phenyl}-acetonitrile]
pIC50 [1]: 7.00 to 11.00
pIC50 [2]: 7.00 to 11.00
pIC50 [3]: 7.00 to 11.00
pIC50 [4]: < 6.00
pIC50 [5]: 6.30 to 7.00
pIC50 [6]: < 5.30

SMILES: CCc1cc(CC#N)ncc1N(C)c1cc2c(cn1)ncn2C [Compound 407, {4-Ethyl-5-[methyl-(1-methyl-1H-imidazo[4,5-c]pyridin-6-yl)-amino]-pyridin-2-yl}-acetonitrile]
pIC50 [1]: 7.00 to 11.00
pIC50 [2]: 7.00 to 11.00
pIC50 [3]: 6.30 to 7.00
pIC50 [4]: < 6.00
pIC50 [5]: 6.00 to 6.30
pIC50 [6]: < 5.30

SMILES: CCc1cc(C(C#N)N2CCNC(=O)C2)ccc1N(C)c1cc2c(cn1)ncn2C (stereo not drawn) [Compound 410, {3-Ethyl-4-[methyl-(1-methyl-1H-imidazo[4,5-c]pyridin-6-yl)-amino]-phenyl}-(3-oxo-piperazin-1-yl)-acetonitrile]
pIC50 [1]: 7.00 to 11.00
pIC50 [2]: 7.00 to 11.00
pIC50 [3]: 7.00 to 11.00
pIC50 [4]: < 6.00
pIC50 [5]: 7.00 to 11.00
pIC50 [6]: < 5.30

Reference: patent US20130217664A1, “NOVEL COMPOUNDS USEFUL FOR THE TREATMENT OF DEGENERATIVE AND INFLAMMATORY DISEASES” (priority 2012, published 2013)
